What was measured:
[1] = (§1) Measurement of Sodium Ion Channel Blocking Effects: In order to measure the sodium ion channel blocking effect, an IonFlux16 Auto patch clamp system (Fluxion, Inc.) and a plate for exclusive use were used. The cells were distributed in an extracellular solution (4 mM KCl, 138 mM NaCl, 1 mM MgCl2, 1.8 mM CaCl2, 5.6 mM glucose, 10 mM HEPES, pH 7.45), and then dispensed in the specified region of the plate, and each of the prepared compound samples was diluted at various concentrations, and then dispensed in the specified region of the plate.; format: cell-based
[2] = as §1; format: cell-based; remark: listed apart in the source

Structure (SMILES) | IC50 [1] [nM] | IC50 [2] [nM]
CNC1CCN(c2cc(F)ccc2Nc2cc(F)c(S(=O)(=O)Nc3ccncn3)cc2Cl)C1 (stereo not drawn) | 250 | 
CNCCN(C)c1cc(C(F)(F)F)ccc1Nc1cc(F)c(S(=O)(=O)Nc2ncc(F)cn2)cc1Cl | 60 | > 10000
CNC1CCN(c2cc(F)ccc2Nc2cc(F)c(S(=O)(=O)Nc3ncns3)cc2Cl)C1 (stereo not drawn) | 1400 | 
CNC1CCN(c2cc(F)ccc2Nc2cc(F)c(S(=O)(=O)Nc3ccn(C)n3)cc2Cl)C1 (stereo not drawn) | 390 | 
C[C@@H]1CNCCN1c1cc(Cl)ccc1Nc1cc(F)c(S(=O)(=O)Nc2cscn2)cc1Cl | 103 | 6720
CNC1CCN(c2c(F)cccc2Nc2cc(F)c(S(=O)(=O)Nc3cscn3)cc2Cl)C1 (stereo not drawn) | 86 | > 10000
CNCCN(C)c1cc(C#N)ccc1Nc1cc(F)c(S(=O)(=O)Nc2cscn2)cc1Cl | 120 | > 10000
CN[C@@H]1CCCN(c2cc(F)ccc2Nc2ccc(S(=O)(=O)Nc3cscn3)cc2Cl)C1 | 49 | > 10000
CNC1CCN(c2cc(F)ccc2Nc2cc(F)c(S(=O)(=O)Nc3cc(C)on3)cc2Cl)C1 (stereo not drawn) | 360 | > 10000
CNCCN(C)c1cc(F)ccc1Nc1cc(F)c(S(=O)(=O)Nc2ncc(C)s2)cc1Cl | 50 | 
CNCCN(C)c1cc(C#N)ccc1Nc1cc(F)c(S(=O)(=O)Nc2ncc(F)cn2)cc1Cl | 1090 | > 10000
CN1CCN(c2cc(OC(F)(F)F)ccc2Nc2cc(F)c(S(=O)(=O)Nc3cscn3)cc2Cl)CC1 | 28 | > 10000
CNC1CCN(c2ccccc2Nc2ccc(S(=O)(=O)Nc3cscn3)c(F)c2)C1 (stereo not drawn) | 53 | > 10000
CNC1CCN(c2cc(C(F)(F)F)ccc2Nc2ccc(S(=O)(=O)Nc3cscn3)c(F)c2)C1 (stereo not drawn) | 58 | > 10000
CNCCN(C)c1cc(F)ccc1Nc1cc(F)c(S(=O)(=O)Nc2ncco2)cc1Cl | 360 | 
CN(C)CCN(C)c1cc(F)ccc1Nc1cc(F)c(S(=O)(=O)Nc2ncc(Cl)s2)cc1Cl | 60 | 
CNC1CCN(c2cc(F)ccc2Nc2cc(F)c(S(=O)(=O)Nc3cscn3)cc2Cl)C1 (stereo not drawn) |  | > 10000
CNC1CCN(c2ccccc2Nc2ccc(S(=O)(=O)Nc3cscn3)cc2Cl)C1 (stereo not drawn) | 13 | > 10000
CNC1CCN(c2cc(F)ccc2Nc2ccc(S(=O)(=O)Nc3cscn3)cc2)C1 (stereo not drawn) | 396 | > 10000
CNC1CCN(c2cc(F)ccc2Nc2cc(F)c(S(=O)(=O)Nc3cnccn3)cc2Cl)C1 (stereo not drawn) | 300 | > 10000

Structure (SMILES) | IC50 [1] [nM] | IC50 [2] [nM]
CNCCN(C)c1ccccc1Nc1cc(F)c(S(=O)(=O)Nc2cscn2)cc1Cl | 40 | > 10000
CN(C)CCN(C)c1ccccc1Nc1cc(F)c(S(=O)(=O)Nc2ncc(Cl)s2)cc1Cl | 3670 | 
C[C@H]1CN(c2cc(Cl)ccc2Nc2cc(F)c(S(=O)(=O)Nc3cscn3)cc2Cl)CCN1 | 1500 | > 10000
CNCCN(C)c1cc(F)ccc1Nc1cc(F)c(S(=O)(=O)Nc2ncc(F)s2)cc1Cl | 9 | 1830
CN[C@@H]1CCCN(c2cc(F)ccc2Nc2cc(F)c(S(=O)(=O)Nc3cscn3)cc2Cl)C1 | 66 | > 10000
CNCCN(C)c1cc(F)ccc1Nc1cc(F)c(S(=O)(=O)Nc2ccccn2)cc1Cl | 110 | > 10000
CNCCN(C)c1cc(F)ccc1Nc1cc(F)c(S(=O)(=O)Nc2nccs2)cc1Cl | 20 | > 10000
CNCCN(C)c1ccccc1Nc1cc(F)c(S(=O)(=O)Nc2cc(C(C)(C)C)on2)cc1Cl | > 10000 | 
CN(C)CCN(C)c1cc(F)ccc1Nc1cc(F)c(S(=O)(=O)Nc2nccs2)cc1Cl | 240 | 
CNCCN(C)c1ccccc1Nc1cc(F)c(S(=O)(=O)Nc2ncc(F)cn2)cc1Cl | 100 | > 10000
CNC1CCN(c2cc(F)ccc2Nc2cc(F)c(S(=O)(=O)Nc3cncnc3)cc2Cl)C1 (stereo not drawn) | > 10000 | > 10000
CNC1CCN(c2cc(OC)ccc2Nc2cc(F)c(S(=O)(=O)Nc3cscn3)cc2Cl)C1 (stereo not drawn) | 12 | > 10000
CNC1CCN(c2ccccc2Nc2ccc(S(=O)(=O)Nc3cscn3)cc2)C1 (stereo not drawn) | 51 | > 10000
CNC1CCN(c2cc(Cl)ccc2Nc2cc(F)c(S(=O)(=O)Nc3cscn3)cc2Cl)C1 (stereo not drawn) | 26 | > 10000
CNCCN(C)c1cc(F)ccc1Nc1cc(F)c(S(=O)(=O)Nc2cc(C(C)(C)C)on2)cc1Cl | 190 | 
CNCCN(C)c1cc(F)ccc1Nc1cc(F)c(S(=O)(=O)Nc2ncc(Cl)s2)cc1Cl | 8 | 5540
CNC1CCN(c2cc(F)ccc2Nc2cc(F)c(S(=O)(=O)Nc3ncc(F)cn3)cc2Cl)C1 (stereo not drawn) | 110 | > 10000
CNCCN(C)c1cc(C#N)ccc1Nc1cc(F)c(S(=O)(=O)Nc2ccc(F)cn2)cc1Cl | 230 | > 10000
CNCCN(C)c1cc(C(F)(F)F)ccc1Nc1cc(F)c(S(=O)(=O)Nc2cscn2)cc1Cl | 30 | 8200
CNCCN(C)c1ccccc1Nc1cc(F)c(S(=O)(=O)Nc2cc(C)[nH]n2)cc1Cl | > 10000 | 

From ChEMBL document CHEMBL5726731, “Substituted benzenesulfonamides as sodium channel blockers” (2019)
